Laboratory results reported in patent US7012081B2, “Anthranyl amides and their use as medicaments” (Schering AG, priority 2000, dated 2006).

Assays:
VEGFR II (KDR) = VEGFR II (KDR) (Homo sapiens, UniProt P35968); assay: Inhibition of the KDR kinase activity (33P-ATP / poly-(Glu4Tyr) phosphocellulose filter assay); assay type: biochemical; details: substrate poly-(Glu4Tyr), 10 minutes at room temperature
Method: • Stock solution A: 3 mmol of ATP in water, pH 7.0 (−70° C.) • Stock solution B: g-33P-ATP 1 mCi/100 μl • Stock solution C: poly-(Glu4 Tyr) 10 mg/ml in water Solution for Dilutions • Substrate solvent: 10 mmol of DTT, 10 mmol of manganese chloride, 100 mmol of magnesium chloride • Enzyme solution: 120 mmol of tris/HCl, pH 7.5, 10 μM of sodium vanadium oxide Sample Application 1 Inhibition of the KDR- and FLT-1 Kinase Activity in the Presence of the Compounds According to the Invention
In a microtiter plate (without protein binding) that tapers to a point, 10 μl of substrate mix (10 μl of volume of ATP stock solution A+25 μCi of g-33P-ATP (about 2.5 μl of stock solution B)+30 μl of poly-(Glu4Tyr) stock solution C+1.21 ml of substrate solvent), 10 μl of inhibitor solution (substances corresponding to the dilutions, 3% DMSO in substrate solvent as a control) and 10 μl of enzyme solution (11.25 μg of enzyme stock solution (KDR or FLT-1 kinase) are added at 4° C. in 1.25 ml of enzyme solution (dilute). It is thoroughly mixed and incubated for 10 minutes at room temperature. Then, 10 μl of stop solution (250 mmol of EDTA, pH 7.0) is added, mixed, and 10 μl of the solution is transferred to a P 81 phosphocellulose filter. Then, it is washed several times in 0.1 M phosphoric acid. The filter paper is dried, coated with Meltilex and measured in a microbeta counter. […]

VEGFR II (KDR), sequence (P35968 20-1356, species assumed): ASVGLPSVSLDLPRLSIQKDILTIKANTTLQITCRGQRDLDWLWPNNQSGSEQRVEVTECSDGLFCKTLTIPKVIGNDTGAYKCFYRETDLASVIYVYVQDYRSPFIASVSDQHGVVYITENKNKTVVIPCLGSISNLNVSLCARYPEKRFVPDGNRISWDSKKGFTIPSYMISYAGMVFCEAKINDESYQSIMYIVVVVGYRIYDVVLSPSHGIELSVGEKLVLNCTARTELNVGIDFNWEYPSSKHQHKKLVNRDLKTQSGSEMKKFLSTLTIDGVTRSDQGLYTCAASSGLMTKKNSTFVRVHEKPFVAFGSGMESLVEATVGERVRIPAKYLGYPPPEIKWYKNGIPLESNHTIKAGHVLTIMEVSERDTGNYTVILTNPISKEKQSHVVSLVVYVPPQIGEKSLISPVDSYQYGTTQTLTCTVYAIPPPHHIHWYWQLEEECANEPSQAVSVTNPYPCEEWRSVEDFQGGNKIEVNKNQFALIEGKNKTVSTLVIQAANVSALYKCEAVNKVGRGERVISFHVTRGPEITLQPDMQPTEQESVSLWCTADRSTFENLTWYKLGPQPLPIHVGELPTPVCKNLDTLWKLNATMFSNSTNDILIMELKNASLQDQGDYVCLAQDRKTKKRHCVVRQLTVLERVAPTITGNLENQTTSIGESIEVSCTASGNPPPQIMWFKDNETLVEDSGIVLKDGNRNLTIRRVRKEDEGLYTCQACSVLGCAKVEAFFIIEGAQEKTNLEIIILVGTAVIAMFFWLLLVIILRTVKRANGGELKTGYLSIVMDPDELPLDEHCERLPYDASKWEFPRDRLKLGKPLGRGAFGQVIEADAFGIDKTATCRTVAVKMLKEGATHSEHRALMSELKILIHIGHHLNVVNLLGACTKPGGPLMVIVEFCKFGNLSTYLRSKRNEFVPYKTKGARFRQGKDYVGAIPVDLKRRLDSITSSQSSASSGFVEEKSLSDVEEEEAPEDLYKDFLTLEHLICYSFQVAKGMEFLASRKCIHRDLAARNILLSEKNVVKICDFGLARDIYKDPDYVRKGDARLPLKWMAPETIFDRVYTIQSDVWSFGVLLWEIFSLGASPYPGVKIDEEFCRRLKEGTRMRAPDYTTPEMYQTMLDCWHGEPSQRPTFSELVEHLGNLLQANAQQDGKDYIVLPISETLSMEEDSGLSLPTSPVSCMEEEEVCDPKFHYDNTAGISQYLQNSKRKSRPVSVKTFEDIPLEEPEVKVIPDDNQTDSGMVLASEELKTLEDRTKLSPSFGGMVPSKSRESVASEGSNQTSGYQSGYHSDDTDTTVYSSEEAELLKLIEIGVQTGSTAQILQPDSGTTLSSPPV

Row | IC50 (VEGFR II (KDR)) [nM] | melting point [°C] | SMILES
1 | 50 | 140.4 | O=C(Nc1cc2ccccc2cn1)c1ccccc1NCC1CCOCC1 [Example 1.1]
2 | 20 | – | O=C1CCC(CNc2ccccc2C(=O)Nc2cc3ccccc3cn2)CC1 [Example 2.0]
